Experimental data from US20250186410A1, “DUAL INHIBITORS OF TRYPTOPHAN DIOXYGENASES (IDO1 AND TDO) AND THEIR USE IN THERAPY” (ANTIDO THERAPEUTICS INTERNATIONAL SÀRL, priority 2022, published 2025).

How the values were obtained:
[1] = MTT cell viability in the cellular IDO1/TDO experiments; assay type: cell-based; settings: mouse, read-out: Cytotoxicity IC50
Protocol: The viability of the cells in each well in the same experiment was determined using the 3-(4,5-dimethylthiazolyl-2-yl)-2,5-diphenyltetrazolium bromide (MTT) colourimetric assay. After the removal of the supernatant for determination of IDO1 inhibition, the cells were incubated with MTT (500 μg/mL) until crystal formation was observed. Plates were centrifuged for 15 min at 2500 g, and then all the supernatant in then wells was discarded. DMSO (100 μL/well) was added to dissolve the crystals and then the absorbance in each well was measured at 570 nm. Cell viability in each well was expressed as a percentage of untreated controls. Triplicate cultures were used for all experiments unless stated otherwise.
The viability of the cells in each well in the same experiment was determined using the 3-(4,5-dimethylthiazolyl-2-yl)-2,5-diphenyltetrazolium bromide (MTT) colourimetric assay.

[2] = biological target: human TDO (GL261 cells transfected to over-express full length human TDO) (Homo sapiens (Human), UniProt P48775); test: Cell-based assay for TDO inhibition; settings: 24 h; read-out: Cellular TDO IC50
human TDO (GL261 cells transfected to over-express full length human TDO), sequence (P48775 whole entry): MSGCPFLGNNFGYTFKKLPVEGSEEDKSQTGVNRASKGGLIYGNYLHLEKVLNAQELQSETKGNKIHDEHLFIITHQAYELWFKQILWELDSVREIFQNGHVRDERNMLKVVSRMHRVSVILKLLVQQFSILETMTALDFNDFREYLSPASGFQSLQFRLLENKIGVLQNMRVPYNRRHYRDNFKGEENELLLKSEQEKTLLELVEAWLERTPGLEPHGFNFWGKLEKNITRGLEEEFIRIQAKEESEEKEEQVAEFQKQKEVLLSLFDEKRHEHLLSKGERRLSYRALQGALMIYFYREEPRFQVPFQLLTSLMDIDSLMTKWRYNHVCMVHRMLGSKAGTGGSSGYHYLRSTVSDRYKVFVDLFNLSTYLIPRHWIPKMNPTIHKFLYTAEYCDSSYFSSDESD
Protocol: Culture supernatant from each well was then transferred into a fresh, flat-bottomed 96-well plate, and kynurenine content was determined as described above for the IDO1 assay, and the concentration that inhibited 50% cellular enzyme activity was calculated.

[3] = biological target: human IDO1 (LLTC-hIDO1 cells) (Homo sapiens (Human), UniProt P14902); test: Cell-based assay for IDO1 inhibition; settings: 24 h; read-out: Cellular IDO1 IC50
human IDO1 (LLTC-hIDO1 cells), sequence (P14902 whole entry): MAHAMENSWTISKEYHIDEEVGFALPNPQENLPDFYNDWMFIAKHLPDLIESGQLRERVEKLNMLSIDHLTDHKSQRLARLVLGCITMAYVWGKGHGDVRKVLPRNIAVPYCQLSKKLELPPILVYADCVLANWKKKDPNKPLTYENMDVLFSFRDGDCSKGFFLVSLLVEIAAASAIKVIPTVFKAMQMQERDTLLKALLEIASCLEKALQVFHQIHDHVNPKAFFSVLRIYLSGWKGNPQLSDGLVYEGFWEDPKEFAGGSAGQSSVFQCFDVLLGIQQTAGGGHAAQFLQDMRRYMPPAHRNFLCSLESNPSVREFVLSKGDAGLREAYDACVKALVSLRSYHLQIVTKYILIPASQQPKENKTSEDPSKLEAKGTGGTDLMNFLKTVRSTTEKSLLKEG
Protocol: Culture supernatant from each well was then transferred into a fresh, flat-bottomed 96-well plate, mixed with trichloroacetic acid (10% final concentration) and incubated for 20 min at 60° C. Plates were then centrifuged (10 min at 2500 g) and the supernatants were then transferred and mixed 1:1 with 4-(dimethylamino)benzaldehyde (20 mg/mL in acetic acid) in a new plate. The absorbance of each well was read at 480 nm, and the concentration that inhibited 50% cellular enzyme activity was calculated.

[4] = biological target: Recombinant human IDO1 (rhIDO1) (Homo sapiens (Human), UniProt P14902); test: Enzymatic assay for IDO1 activity; assay type: biochemical; settings: read-out: Isolated IDO1 Enayme Assay IC50
Recombinant human IDO1 (rhIDO1), sequence (P14902 whole entry): as above
Protocol: Recombinant human IDO1 (rhIDO1) was expressed and purified from cultures of EC538 strain of E. coli transformed with pREP4 and pQE9-IDO plasmid. Reaction mixes were set up in 384-well microplates containing 50 mM phosphate buffer, 10 mM ascorbic, 10 μM methylene blue, 100 μg/mL catalase, 80 μM TRP, 0.01% Tween 20 (v/v) mixed with rhIDO1 (15 μL) at a final concentration of 9 nM in a total volume of 30 μL assay medium. The plates were incubated at 37° C. for 30 min, and the enzymatic reaction was terminated by adding piperidine (200 mM) and heated at 65° C. for 20 min. Fluorescence intensity was read at λex 400 nm and λem 500 nm. Test compounds were dissolved in 100% DMSO and pre-diluted in assay medium prior to adding rhIDO1. IDO1 inhibition (%) was calculated as
All experiments were carried out in triplicates, and statistical Analyses were conducted in Prism v5 (Graphpad Software, Inc., La Jolla, CA, USA).

[5] = system: LLC-CR cells; settings: cited from earlier work

| SMILES | IC50 [2] [µM] | IC50 [3] [µM] | IC50 [4] [µM] | IC50 at 24 h [1] [µM] | GI50 concentration in resistant clones ([5]; LLC-CR cells) [µg/mL] | fold resistance of LLC-CR ([5]; LLC-CR versus parental LLC) |
| --- | --- | --- | --- | --- | --- | --- |
| Cc1nc2onc(N)c2c(C)c1Br [Compound 1, 5-Bromo-4,6-dimethylisoxazolo[5,4-b]pyridin-3-amine] | 10 to 100 |  |  | > 100 |  |  |
| Cc1nc2onc(N)c2c(C)c1Cl [Compound 3, 5-Chloro-4,6-dimethylisoxazolo[5,4-b]pyridin-3-amine] | 10 to 100 |  |  | 10 to 100 |  |  |
| Cc1cc(C)c2c(N)noc2n1 [Compound 4, 4,6-Dimethylisoxazolo[5,4-b]pyridin-3-amine] | 10 to 100 |  |  | > 100 |  |  |
| Cc1nc2onc(N)c2c(C)c1C [Compound 5, 4,5,6-Trimethylisoxazolo[5,4-b]pyridin-3-amine] | 10 to 100 | 1 to 10 |  | > 100 |  |  |
| Nc1noc2nc3c(cc12)CCCC3 [Compound 10, 5,6,7,8-Tetrahydroisoxazolo[5,4-b]quinolin-3-amine] | 10 to 100 |  | > 100 | > 100 |  |  |
| Nc1noc2nc(Cl)ccc12 [Compound 11, 6-Chloroisoxazolo[5,4-b]pyridin-3-amine] |  |  |  | > 100 |  |  |
| Nc1noc2nc(-c3ccccc3)ccc12 [Compound 15, 6-Phenylisoxazolo[5,4-b]pyridin-3-amine] | 10 to 100 |  | > 100 | > 100 |  |  |
| Cc1nc2onc(NC(=O)Nc3cccc(C(F)(F)F)c3)c2c(C)c1Cl [Compound 15B, 1-(5-Chloro-4,6-dimethylisoxazolo[5,4-b]pyridin-3-yl)-3-(3-(trifluoromethyl)phenyl)urea] |  | 1 to 10 | > 100 | > 100 |  |  |
| COc1ccc2c(N)noc2n1 [Compound 41, 6-Methoxyisoxazolo[5,4-b]pyridin-3-amine] | 10 to 100 | 1 to 10 | > 100 | > 100 |  |  |
| Cc1cc(Cl)nc2onc(N)c12 [Compound 42, 6-Chloro-4-methylisoxazolo[5,4-b]pyridin-3-amine] | 1 to 10 |  | < 1 | > 100 |  |  |
| Cc1cc2c(N)noc2nc1C [Compound 45, 5,6-Dimethylisoxazolo[5,4-b]pyridin-3-amine] | 1 to 10 |  | > 100 | > 100 |  |  |
| Nc1noc2nc(C(F)(F)F)ccc12 [Compound 47, 6-(Trifluoromethyl)isoxazolo[5,4-b]pyridin-3-amine] | 1 to 10 |  | < 1 | > 100 |  |  |
| Nc1noc2nc(-c3cccs3)ccc12 [Compound 74, 6-(2-Thienyl)isoxazolo[5,4-b]pyridin-3-amine] | 10 to 100 |  | > 100 | > 100 |  |  |
| Nc1noc2nc(Oc3ccccc3Cl)ccc12 [Compound 84, 6-(2-Chlorophenoxy)isoxazolo[5,4-b]pyridin-3-amine] | 1 to 10 |  |  | > 100 |  |  |
| Nc1noc2nc(Oc3ccc(OC(F)(F)F)cc3)ccc12 [Compound 89, 6-(4-(Trifluoromethoxy)phenoxy)isoxazolo[5,4-b]pyridin-3-amine] |  |  |  | > 100 |  |  |
| COc1cccc(Nc2ccc3c(N)noc3n2)c1 [Compound 95, N^6-(3-Methoxyphenyl)isoxazolo[5,4-b]pyridine-3,6-diamine] | 10 to 100 | 10 to 100 | > 100 | > 100 |  |  |
| N.N.O=C([O-])C1(C(=O)[O-])CCC1.[Pt+2] [carboplatin] |  |  |  |  | 1.3 | 3-5 fold |

Continued, in another order:

| IC50 [2] [µM] | IC50 [3] [µM] | IC50 [4] [µM] | SMILES | IC50 at 24 h [1] [µM] | GI50 concentration in resistant clones ([5]; LLC-CR cells) [µg/mL] | fold resistance of LLC-CR ([5]; LLC-CR versus parental LLC) |
| --- | --- | --- | --- | --- | --- | --- |
| < 1 |  |  | Nc1noc2ncc(Br)cc12 [Compound 6, 5-Bromoisoxazolo[5,4-b]pyridin-3-amine] | > 100 |  |  |
| < 1 |  |  | Nc1noc2ncc(Cl)cc12 [Compound 8, 5-Chloroisoxazolo[5,4-b]pyridin-3-amine] | > 100 |  |  |
| 1 to 10 |  |  | Nc1noc2nc3ccccc3cc12 [Compound 9, Isoxazolo[5,4-b]quinolin-3-amine] | 10 to 100 |  |  |
| 1 to 10 |  | > 100 | Nc1noc2ncncc12 [Compound 12, Isoxazolo[5,4-d]pyrimidin-3-amine] | > 100 |  |  |
| 1 to 10 | 1 to 10 | > 100 | Nc1noc2ncc(F)cc12 [Compound 14, 5-Fluoroisoxazolo[5,4-b]pyridin-3-amine] | > 100 |  |  |
| < 1 |  |  | Nc1noc2ncc(I)cc12 [Compound 16, 5-Iodoisoxazolo[5,4-b]pyridin-3-amine] | > 100 |  |  |
| 1 to 10 | 10 to 100 | > 100 | Nc1noc2ncc(-c3ccccc3)cc12 [Compound 24, 5-Phenylisoxazolo[5,4-b]pyridin-3-amine] | > 100 |  |  |
| < 1 |  | > 100 | Cc1cnc2onc(N)c2c1 [Compound 44, 5-Methylisoxazolo[5,4-b]pyridin-3-amine] | > 100 |  |  |
| < 1 |  |  | Nc1noc2ncc([N+](=O)[O-])cc12 [Compound 49, 5-Nitroisoxazolo[5,4-b]pyridin-3-amine] | > 100 |  |  |
| < 1 |  |  | Nc1noc2nc(Cl)c(Cl)cc12 [Compound 67, 5,6-Dichloroisoxazolo[5,4-b]pyridin-3-amine] | > 100 |  |  |
